Test results published in ChEMBL document CHEMBL1201862, “PubChem BioAssay data set” (2004).
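These data come from cells grown in 96-well plates and exposed to compound for 48 hours at five concentrations. The concentration for 50% growth inhibition is given as GI50.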 Activity calls are given as the source filed them. Rule as the data show it: active = GI50 up to about 1.1 µM and inactive = higher.

Key:
Test in all cases: NCI tumour cell line growth inhibition, 48 h
786-0 = test system: 786-0
CCRF-CEM = test system: CCRF-CEM
COLO 205 = test system: COLO 205
HCT-116 = test system: HCT-116
HOP-92 = test system: HOP-92
Hs-578T = test system: Hs-578T
KM12 = test system: KM12
MCF7 = test system: MCF7
MDA-MB-231 = test system: MDA-MB-231
MDA-MB-435 = test system: MDA-MB-435
OVCAR-4 = test system: OVCAR-4
OVCAR-5 = test system: OVCAR-5
OVCAR-8 = test system: OVCAR-8
PC-3 = test system: PC-3
RPMI-8226 = test system: RPMI-8226
RXF 393 = test system: RXF 393
SF-539 = test system: SF-539
U-251 = test system: U-251
SR = test system: SR

Measured: GI50

Cc1nc2c(=O)n(-c3ccccc3)c3ccccc3c2o1
inactive: 786-0 > 100 µM | CCRF-CEM > 100 µM | COLO 205 > 100 µM | HCT-116 > 100 µM | HOP-92 > 100 µM | Hs-578T > 100 µM | KM12 > 100 µM | MCF7 > 100 µM | MDA-MB-231 > 100 µM | MDA-MB-435 > 100 µM | OVCAR-4 > 100 µM | OVCAR-5 > 100 µM | OVCAR-8 > 100 µM | PC-3 > 100 µM | RPMI-8226 > 100 µM | RXF 393 > 100 µM | SF-539 > 100 µM | U-251 > 100 µM

CCOC(=O)C(=[N+]=[N-])C(=O)CN1C(=O)c2ccccc2C1=O
inactive: 786-0 > 100 µM | COLO 205 > 100 µM | HCT-116 > 100 µM | HOP-92 > 100 µM | Hs-578T > 100 µM | MCF7 > 100 µM | MDA-MB-231 > 100 µM | MDA-MB-435 > 100 µM | OVCAR-4 > 100 µM | OVCAR-5 > 100 µM | OVCAR-8 > 100 µM | PC-3 > 100 µM | RXF 393 > 100 µM | SF-539 > 100 µM | U-251 > 100 µM

O=C(/C=C1\N=C(c2ccccc2)N(c2nc3ccc(Sc4ccccc4)cc3[nH]2)C1=O)/C=C/c1ccccc1
inactive: 786-0 33.3 µM | CCRF-CEM 31.6 µM | COLO 205 16.5 µM | HCT-116 32.8 µM | HOP-92 37.8 µM | Hs-578T 26.4 µM | KM12 26.7 µM | MCF7 30.1 µM | MDA-MB-231 22.4 µM | MDA-MB-435 15.7 µM | OVCAR-4 39.8 µM | OVCAR-5 44 µM | OVCAR-8 24.5 µM | PC-3 30.5 µM | RPMI-8226 22.6 µM | RXF 393 22.8 µM | U-251 27.7 µM

COc1ccc(-c2oc3c(CC(=O)O)cccc3c(=O)c2OC)cc1
inactive: 786-0 > 100 µM | CCRF-CEM > 100 µM | COLO 205 > 100 µM | HCT-116 > 100 µM | Hs-578T > 100 µM | MCF7 > 100 µM | MDA-MB-231 > 100 µM | MDA-MB-435 > 100 µM | OVCAR-5 > 100 µM | OVCAR-8 > 100 µM | PC-3 > 100 µM | RXF 393 > 100 µM | SF-539 > 100 µM | SR > 100 µM | U-251 > 100 µM

O=c1[nH]nc(-c2ccccc2)n1/N=C/c1c[nH]c2ccccc12
inactive: 786-0 56.2 µM | CCRF-CEM > 100 µM | COLO 205 > 100 µM | HCT-116 42.9 µM | HOP-92 > 100 µM | Hs-578T > 100 µM | KM12 5 µM | MCF7 > 100 µM | MDA-MB-231 > 100 µM | MDA-MB-435 77.1 µM | OVCAR-4 > 100 µM | OVCAR-5 > 100 µM | OVCAR-8 32.7 µM | PC-3 > 100 µM | RPMI-8226 > 100 µM | RXF 393 98.4 µM | SF-539 > 100 µM | U-251 > 100 µM

CCCC(=O)Nc1ncnc2c1ncn2C1OC2COP(=O)(O)OC2C1OC(=O)CCC (stereo unspecified)
inactive: 786-0 > 100 µM | CCRF-CEM 266 µM | COLO 205 > 100 µM | HCT-116 > 100 µM | HOP-92 > 1000 µM | Hs-578T > 1000 µM | KM12 > 100 µM | MCF7 > 100 µM | MDA-MB-231 479 µM | MDA-MB-435 > 100 µM | OVCAR-4 > 100 µM | OVCAR-5 > 100 µM | OVCAR-8 > 100 µM | PC-3 > 100 µM | RPMI-8226 > 1000 µM | SF-539 382 µM | SR 493 µM | U-251 > 100 µM

CC1=C2CC3=C(C)C(=O)O[C@H]3C[C@@H](C)[C@@H]2CC1 [AMERICANOLIDE D]
inactive: 786-0 > 100 µM | CCRF-CEM 76.2 µM | COLO 205 > 100 µM | HCT-116 > 100 µM | HOP-92 > 100 µM | Hs-578T > 100 µM | KM12 7.48 µM | MDA-MB-231 > 100 µM | MDA-MB-435 > 100 µM | OVCAR-4 > 100 µM | OVCAR-5 > 100 µM | OVCAR-8 > 100 µM | PC-3 > 100 µM | RPMI-8226 > 100 µM | SR 62.1 µM | U-251 > 100 µM

CC(=N/NC(=S)N(C)C)/C(=N\NC(=S)N(C)C)c1ccccc1
inactive: 786-0 2 µM | COLO 205 1.79 µM | HCT-116 2.93 µM | HOP-92 1.95 µM | Hs-578T 3.11 µM | KM12 2.15 µM | MCF7 2.84 µM | MDA-MB-231 3.1 µM | MDA-MB-435 1.87 µM | OVCAR-4 2.02 µM | OVCAR-5 2.21 µM | OVCAR-8 2.02 µM | PC-3 2 µM | RPMI-8226 2.74 µM | RXF 393 1.46 µM | SF-539 3.66 µM | U-251 2.8 µM

CC(=O)OC1COC(Nn2c(=O)[nH]c3ccccc3c2=O)C(OC(C)=O)C1OC(C)=O (stereo unspecified)
inactive: 786-0 > 100 µM | CCRF-CEM > 100 µM | COLO 205 > 100 µM | HCT-116 > 100 µM | HOP-92 > 100 µM | Hs-578T 13.6 µM | KM12 39.4 µM | MCF7 > 100 µM | MDA-MB-231 > 100 µM | MDA-MB-435 > 100 µM | OVCAR-5 > 100 µM | OVCAR-8 86.9 µM | PC-3 > 100 µM | RPMI-8226 > 100 µM | SF-539 > 100 µM | SR > 100 µM | U-251 > 100 µM

COc1ccc(-c2csc(-n3c(-c4ccccc4)nc4c(Br)cc(Br)cc4c3=O)n2)cc1
inactive: 786-0 22.9 µM | CCRF-CEM 13.1 µM | COLO 205 37 µM | HCT-116 22.5 µM | HOP-92 5.14 µM | Hs-578T 41 µM | KM12 33.6 µM | MCF7 35.1 µM | MDA-MB-231 28.5 µM | MDA-MB-435 38.3 µM | OVCAR-4 63.2 µM | OVCAR-5 20.9 µM | OVCAR-8 26.7 µM | PC-3 25.8 µM | RPMI-8226 7.74 µM | RXF 393 26.3 µM | U-251 28.7 µM

CO[C@]12C[C@H](CNC(=O)c3ccc[nH]3)O[C@H]1NC(=O)N2
inactive: 786-0 > 100 µM | CCRF-CEM > 100 µM | COLO 205 > 100 µM | HCT-116 > 100 µM | HOP-92 > 100 µM | Hs-578T > 100 µM | KM12 > 100 µM | MCF7 > 100 µM | MDA-MB-231 > 100 µM | MDA-MB-435 > 100 µM | OVCAR-5 > 100 µM | OVCAR-8 > 100 µM | PC-3 > 100 µM | RPMI-8226 > 100 µM | SF-539 > 100 µM | SR 9.31 µM | U-251 > 100 µM

C[C@@H]1[C@H](C)N1CC(O)Cn1ccnc1[N+](=O)[O-] (stereo partly specified)
inactive: 786-0 > 100 µM | CCRF-CEM > 100 µM | COLO 205 > 100 µM | HCT-116 > 100 µM | Hs-578T > 100 µM | KM12 > 100 µM | MCF7 > 100 µM | MDA-MB-231 > 100 µM | MDA-MB-435 > 100 µM | OVCAR-4 > 100 µM | OVCAR-5 > 100 µM | OVCAR-8 > 100 µM | PC-3 > 100 µM | RXF 393 > 100 µM | SF-539 > 100 µM | SR > 100 µM | U-251 > 100 µM

COC(=O)C#Cc1cccc(OC)c1OC
inactive: 786-0 43.8 µM | CCRF-CEM 26.6 µM | COLO 205 27 µM | HCT-116 33.6 µM | HOP-92 25.8 µM | Hs-578T 37.3 µM | KM12 45.4 µM | MCF7 19.7 µM | MDA-MB-231 62.8 µM | MDA-MB-435 33.7 µM | OVCAR-4 20.4 µM | OVCAR-5 22.5 µM | OVCAR-8 40.3 µM | PC-3 36.7 µM | RPMI-8226 30.1 µM | SF-539 21.6 µM | SR 18.7 µM | U-251 31.8 µM

OCCSCc1cc(Cl)cc(Cl)c1O
inactive: 786-0 > 100 µM | CCRF-CEM > 100 µM | COLO 205 > 100 µM | HCT-116 > 100 µM | HOP-92 57.9 µM | Hs-578T > 100 µM | KM12 > 100 µM | MCF7 > 100 µM | MDA-MB-231 > 100 µM | MDA-MB-435 > 100 µM | OVCAR-4 > 100 µM | OVCAR-5 > 100 µM | OVCAR-8 > 100 µM | PC-3 > 100 µM | RPMI-8226 > 100 µM | RXF 393 > 100 µM | U-251 > 100 µM

O=C1c2ccccc2-c2c1c(-c1ccc(F)cc1)nc1ccc3ccccc3c21
inactive: 786-0 > 100 µM | CCRF-CEM > 100 µM | COLO 205 > 100 µM | HCT-116 > 100 µM | Hs-578T > 100 µM | KM12 > 100 µM | MCF7 > 100 µM | MDA-MB-231 > 100 µM | MDA-MB-435 > 100 µM | OVCAR-4 > 100 µM | OVCAR-5 > 100 µM | OVCAR-8 > 100 µM | PC-3 > 100 µM | RPMI-8226 > 100 µM | RXF 393 > 100 µM | SF-539 > 100 µM | U-251 > 100 µM

COc1cc2c(cc1OC)C(C)N(C)c1c-2c(OC(C)=O)cc2cc(OC)c(OC)cc12 (stereo unspecified)
inactive: 786-0 13.1 µM | CCRF-CEM 31.6 µM | COLO 205 6.43 µM | HCT-116 13.9 µM | Hs-578T 19.1 µM | KM12 14.2 µM | MCF7 12.5 µM | MDA-MB-231 5.92 µM | MDA-MB-435 15.8 µM | OVCAR-4 5.61 µM | OVCAR-5 36.4 µM | OVCAR-8 9.4 µM | PC-3 14.7 µM | RPMI-8226 8.69 µM | RXF 393 6.12 µM | SF-539 16 µM | U-251 21.7 µM
